Structures are written as SMILES. A value given as a limit tells only on which side of the number the result lay.

One may read the IC50 as the concentration at which inhibition is half-maximal. As a reminder, the inhibition is how much of the control response was suppressed. A high value points to strong suppression.

Type in all cases: cell-based
One experiment relates to T47D cells. The experiment can be described thus: Anti-proliferation (viability) of ER+ breast cancer T47D cells, 6 days (Table 7, FIG. 2B). To be noted: Homo sapiens, 144 h; T47D cells, 6 days, 10-point serial dilution; read-out: GI IC50 in T47D. As for the experimental part:
To evaluate anti-proliferation activities of heterobifunctional compounds, NSCLC Calu-1 or ER+ breast cancer T47D cells were treated with selected heterobifunctional compounds following a 10-point serial dilution for 3 or 6 days, respectively.
To verify that heterobifunctional compound-mediated degradation is dependent on the binding to CDK4-cyclin D complex, a negative control compound, CPD-143, which is derived from active heterobifunctional compound CPD-10 was designed. CPD-143 bears the same DDB1 ligand and linker as CPD-10 but with a modified warhead to impair the binding of the control compound to CDK4.

Experiment [1] deals with T1, CDK4 (Homo sapiens, UniProt P11802+Q16531). The experiment can be described thus: CDK4 percentage degradation in Calu-1 cells (Table 6). To be noted: 16 hours. On the set-up: Cells that express cyclin D1-3 and CDK4/6 proteins were treated with heterobifunctional compounds; endogenous in cells; host or cells: Calu-1. In outline: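 Calu-1 cells exposed to heterobifunctional compounds at 40 nM or 200 nM for 16 h. Cyclin D1 and CDK4 levels measured by Western blot of RIPA lysates (BCA-normalised loading), bands quantified by densitometry and expressed as percentage degradation.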
Target sequence in this assay (P11802 2-303 limits assumed): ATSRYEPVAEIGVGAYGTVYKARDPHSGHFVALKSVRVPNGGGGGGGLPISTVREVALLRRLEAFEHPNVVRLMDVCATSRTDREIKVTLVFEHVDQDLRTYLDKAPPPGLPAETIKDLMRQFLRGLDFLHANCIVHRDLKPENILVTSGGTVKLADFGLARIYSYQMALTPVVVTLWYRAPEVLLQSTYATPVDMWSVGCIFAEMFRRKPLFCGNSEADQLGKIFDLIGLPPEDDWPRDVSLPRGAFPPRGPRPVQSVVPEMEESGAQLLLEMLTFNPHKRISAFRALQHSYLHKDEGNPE
Target sequence in this assay (P24385 whole entry partner): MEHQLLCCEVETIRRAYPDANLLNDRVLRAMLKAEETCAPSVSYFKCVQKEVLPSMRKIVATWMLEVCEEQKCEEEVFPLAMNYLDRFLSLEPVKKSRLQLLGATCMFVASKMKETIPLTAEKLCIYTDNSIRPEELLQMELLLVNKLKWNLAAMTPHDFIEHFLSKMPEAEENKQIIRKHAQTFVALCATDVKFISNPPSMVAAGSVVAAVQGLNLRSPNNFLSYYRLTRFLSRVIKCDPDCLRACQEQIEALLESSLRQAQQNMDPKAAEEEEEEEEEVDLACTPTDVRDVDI
Target sequence in this assay (Q16531 2-1140 limits assumed): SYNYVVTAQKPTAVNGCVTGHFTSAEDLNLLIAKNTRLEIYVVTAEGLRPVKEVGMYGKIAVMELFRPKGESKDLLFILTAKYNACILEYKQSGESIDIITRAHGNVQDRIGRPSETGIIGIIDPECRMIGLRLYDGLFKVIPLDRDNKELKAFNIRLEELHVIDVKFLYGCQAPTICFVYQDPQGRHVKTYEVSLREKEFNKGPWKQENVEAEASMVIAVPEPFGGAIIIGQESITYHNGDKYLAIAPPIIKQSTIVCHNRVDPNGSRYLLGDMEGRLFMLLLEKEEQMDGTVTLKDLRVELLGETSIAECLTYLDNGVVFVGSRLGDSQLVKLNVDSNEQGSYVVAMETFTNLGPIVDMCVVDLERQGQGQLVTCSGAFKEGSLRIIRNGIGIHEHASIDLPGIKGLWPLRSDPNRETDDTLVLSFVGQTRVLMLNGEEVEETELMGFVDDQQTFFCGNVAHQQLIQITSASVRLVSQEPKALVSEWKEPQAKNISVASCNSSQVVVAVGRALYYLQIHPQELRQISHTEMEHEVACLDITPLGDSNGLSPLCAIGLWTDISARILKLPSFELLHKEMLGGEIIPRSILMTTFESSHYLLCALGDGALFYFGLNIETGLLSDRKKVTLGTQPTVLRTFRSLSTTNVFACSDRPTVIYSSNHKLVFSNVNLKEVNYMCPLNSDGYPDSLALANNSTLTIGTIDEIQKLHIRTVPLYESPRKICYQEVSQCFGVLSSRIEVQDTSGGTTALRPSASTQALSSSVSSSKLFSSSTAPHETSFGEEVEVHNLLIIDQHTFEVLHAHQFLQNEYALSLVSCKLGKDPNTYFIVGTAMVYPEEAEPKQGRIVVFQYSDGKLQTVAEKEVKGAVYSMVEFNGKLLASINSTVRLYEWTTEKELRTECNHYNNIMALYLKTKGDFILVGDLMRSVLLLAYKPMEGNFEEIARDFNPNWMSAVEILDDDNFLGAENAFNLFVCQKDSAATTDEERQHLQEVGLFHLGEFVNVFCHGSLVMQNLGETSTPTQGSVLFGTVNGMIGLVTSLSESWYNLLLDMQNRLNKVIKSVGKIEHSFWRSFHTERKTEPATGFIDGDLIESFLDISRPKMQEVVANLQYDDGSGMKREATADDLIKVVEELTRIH

A further experiment has as its system Calu-1 cells. The experiment can be described thus: Anti-proliferation (viability) of NSCLC Calu-1 cells, 3 days (Table 7, FIG. 2B). The conditions noted are these: Homo sapiens, 72 h; Calu-1 cells, 3 days, 10-point serial dilution; read-out: GI IC50 in Calu-1. The method, boiled down:
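Viability is read after treatment with compounds titrated over ten serial dilution points, with exposure lasting three days for the NSCLC line and six days for the breast cancer line.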

The subject of another experiment is MCF7 cells. The experiment can be described thus: Anti-proliferation (viability) of MCF7 cells (Table 7, FIG. 2B). The conditions noted are these: Homo sapiens, MCF7, MCF7 cells, 3-6 days, 10-point serial dilution; read-out: GI IC50 in MCF-7.
Experiment [2] addresses T1, CDK4. The experiment can be described thus: HiBiT detection of HiBiT-tagged CDK4 protein level in MCF7 cells, 16 hours (Table 8). The conditions noted are these: MCF7 cells stably expressing HiBiT tagged target proteins; for activity at 0.01 µM: 10 nM, read-out: % CDK4 Relative Level (10 nM); for activity at 0.1 µM: 100 nM, read-out: % CDK4 Relative Level (100 nM). Details: expressed in transfected cells; host or cells: MCF7. Here is the method:
HiBiT detection system quantitatively measures total amounts of HiBiT-tagged proteins using a luminescent based method. MCF7 cells stably expressing HiBiT tagged target proteins were treated with heterobifunctional compounds at indicated concentrations for 16 hours, then lysed with Nano-Glo HiBiT Lytic detection reagents.
Target sequence in this assay (P11802 whole entry): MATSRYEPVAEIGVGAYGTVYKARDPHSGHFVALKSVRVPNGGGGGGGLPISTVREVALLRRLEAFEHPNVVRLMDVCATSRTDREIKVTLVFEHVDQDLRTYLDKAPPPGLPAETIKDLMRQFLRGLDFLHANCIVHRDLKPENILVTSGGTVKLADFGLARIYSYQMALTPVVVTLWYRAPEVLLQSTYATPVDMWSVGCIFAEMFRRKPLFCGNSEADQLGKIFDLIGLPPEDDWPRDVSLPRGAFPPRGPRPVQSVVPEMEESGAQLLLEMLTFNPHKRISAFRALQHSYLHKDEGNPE
Target sequence in this assay (P24385 whole entry partner): as the sequence (P24385 whole entry partner) above
Target sequence in this assay (Q16531 2-1140 limits assumed): as the sequence (Q16531 2-1140 limits assumed) above
(In general: HiBiT is a short tag that completes a luciferase, so light tracks the accessible tagged protein.)

Take `[2H]C([2H])([2H])Nc1ccc(C(=O)Nc2cccc(C3CC3)n2)c(NC2CCN(C(=O)CN3CCN(c4ccc(Nc5ncc6c(C)c(C(C)=O)c(=O)n(C7CCCC7)c6n5)nc4)CC3)CC2)n1` [CPD-252, 2-((1-(2-(4-(6-((6-acetyl-8-cyclopentyl-5-methyl-7-oxo-7,8-dihydropyrido[2,3-d]pyrimidin-2-yl)amino)pyridin-3-yl)piperazin-1-yl)acetyl)piperidin-4-yl)amino)-N-(6-cyclopropylpyridin-2-yl)-6-((methyl-d3)amino)nicotinamide]: the IC50 with T47D cells is ≥ 100 nM.

Consider `CC(=O)c1c(C)c2cnc(Nc3ccc(N4CCN(CC(=O)NCC5CC(Nc6c(C(=O)Nc7cc(C)n(C)n7)cccc6C(F)(F)F)C5)CC4)cn3)nc2n(C2CCCC2)c1=O` (centres unmarked) [CPD-266, 2-((3-((2-(4-(6-((6-acetyl-8-cyclopentyl-5-methyl-7-oxo-7,8-dihydropyrido[2,3-d]pyrimidin-2-yl)amino)pyridin-3-yl)piperazin-1-yl)acetamido)methyl)cyclobutyl)amino)-N-(1,5-dimethyl-1H-pyrazol-3-yl)-3-(trifluoromethyl)benzamide], for which, in the experiment with T47D cells, the concentration for half-maximal inhibition (IC50) is ≥ 100 nM.

Regarding `CC(=O)c1c(C)c2cnc(Nc3ccc(N4CCN(CC(=O)NCC5CC(Nc6c(F)cccc6C(=O)Nc6cc(C)n(C)n6)C5)CC4)cn3)nc2n(C2CCCC2)c1=O` (centres unmarked) [CPD-265, 2-((3-((2-(4-(6-((6-acetyl-8-cyclopentyl-5-methyl-7-oxo-7,8-dihydropyrido[2,3-d]pyrimidin-2-yl)amino)pyridin-3-yl)piperazin-1-yl)acetamido)methyl)cyclobutyl)amino)-N-(1,5-dimethyl-1H-pyrazol-3-yl)-3-fluorobenzamide], the IC50 in the experiment with T47D cells was ≥ 100 nM.

For `CC(=O)c1c(C)c2cnc(Nc3ccc(N4CCN(CC(=O)NCC5CC(Nc6nc(NC(C)C)ccc6C(=O)Nc6cc(C)on6)C5)CC4)cn3)nc2n(C2CCCC2)c1=O` (centres unmarked) [CPD-282, 2-((3-((2-(4-(6-((6-acetyl-8-cyclopentyl-5-methyl-7-oxo-7,8-dihydropyrido[2,3-d]pyrimidin-2-yl)amino)pyridin-3-yl)piperazin-1-yl)acetamido)methyl)cyclobutyl)amino)-6-(isopropylamino)-N-(5-methylisoxazol-3-yl)nicotinamide], the inhibition at 0.04 µM against CDK4 [1] (40 nM) was < 30%. In addition, at CDK4 [1] (200 nM), the inhibition at 0.2 µM was < 30%. Also, the IC50 in the experiment on Calu-1 cells was ≤ 10 nM. Besides, the IC50 in the experiment on MCF7 cells is < 50 nM. On CDK4 [2], the activity at 0.01 µM is 55 to 85% and the activity at 0.1 µM lay in the range of 55 to 85%.

For `CNc1ccc(C(=O)Nc2ccc(N(C)C)nn2)c(NCCC(=O)N2CCN(c3ccc(Nc4ncc5cc(C(=O)N(C)C)n(C6CCCC6)c5n4)nc3)CC2)n1` [CPD-616, 7-cyclopentyl-2-((5-(4-(3-((3-((6-(dimethylamino)pyridazin-3-yl)carbamoyl)-6-(methylamino)pyridin-2-yl)amino)propanoyl)piperazin-1-yl)pyridin-2-yl)amino)-N,N-dimethyl-7H-pyrrolo[2,3-d]pyrimidine-6-carboxamide], the IC50 with Calu-1 cells is ≥ 50 nM. The IC50 in the experiment with MCF7 cells was > 100 nM. Moreover, at CDK4 [2], the activity at 0.01 µM was > 85% and the activity at 0.1 µM was > 85%.

For `CC(=O)c1c(C)c2cnc(Nc3ccc(CN4CCN(CC(=O)NC5CC6(C5)CC(Nc5nc(NC(C)C)ccc5C(=O)Nc5ccc(N(C)C)nn5)C6)CC4)cn3)nc2n(C2CCCC2)c1=O` (centres unmarked) [CPD-472, 2-((6-(2-(4-((6-((6-acetyl-8-cyclopentyl-5-methyl-7-oxo-7,8-dihydropyrido[2,3-d]pyrimidin-2-yl)amino)pyridin-3-yl)methyl)piperazin-1-yl)acetamido)spiro[3.3]heptan-2-yl)amino)-N-(6-(dimethylamino)pyridazin-3-yl)-6-(isopropylamino)nicotinamide], the IC50 in the experiment with Calu-1 cells is ≤ 10 nM. In addition, in the experiment on MCF7 cells, the IC50 is < 50 nM. On CDK4 [2], the activity at 0.01 µM was in the range of 55 to 85% and the activity at 0.1 µM is ≤ 55%.

With `CC(=O)c1c(C)c2cnc(Nc3ccc(N4CCN(C5CCN(C(=O)[C@H]6CC[C@H](Nc7nc(C(C)C)ccc7C(=O)Nc7ccc(N(C)C)nn7)CC6)C5)CC4)cn3)nc2n(C2CCCC2)c1=O` (stereo partly drawn) [CPD-499, 2-((trans-4-(3-(4-(6-((6-acetyl-8-cyclopentyl-5-methyl-7-oxo-7,8-dihydropyrido[2,3-d]pyrimidin-2-yl)amino)pyridin-3-yl)piperazin-1-yl)pyrrolidine-1-carbonyl)cyclohexyl)amino)-N-(6-(dimethylamino)pyridazin-3-yl)-6-isopropylnicotinamide], in the experiment with Calu-1 cells, the IC50 was ≤ 10 nM. Moreover, the IC50 with MCF7 cells is < 50 nM. Moreover, at CDK4 [2], the activity at 0.01 µM is > 85% and the activity at 0.1 µM was 55 to 85%.

For `CC(=O)c1c(C)c2cnc(Nc3ccc(CN4CCN(CC(=O)NC5CC6(C5)CC(Nc5nc(NC(C)C)ccc5C(=O)Nc5cn(C)c(C7CC7)n5)C6)CC4)cn3)nc2n(C2CCCC2)c1=O` (centres unmarked) [CPD-589, 2-((6-(2-(4-((6-((6-acetyl-8-cyclopentyl-5-methyl-7-oxo-7,8-dihydropyrido[2,3-d]pyrimidin-2-yl)amino)pyridin-3-yl)methyl)piperazin-1-yl)acetamido)spiro[3.3]heptan-2-yl)amino)-N-(2-cyclopropyl-1-methyl-1H-imidazol-4-yl)-6-(isopropylamino)nicotinamide], the IC50 in the experiment on Calu-1 cells is ≤ 10 nM. Besides, in the experiment with MCF7 cells, the IC50 was < 50 nM. Further, at CDK4 [2], the activity at 0.01 µM lay in the range of 55 to 85% and the activity at 0.1 µM fell in the range of 55 to 85%.

`CC(=O)c1c(C)c2cnc(Nc3ccc(CN4CCN(C(C)C(=O)N5CCC6(CCC(Nc7nc(NC(C)C)ccc7C(=O)Nc7ccc(N(C)C)nn7)C6)C5)CC4)cn3)nc2n(C2CCCC2)c1=O` (centres unmarked) [CPD-550, 2-((2-(2-(4-((6-((6-acetyl-8-cyclopentyl-5-methyl-7-oxo-7,8-dihydropyrido[2,3-d]pyrimidin-2-yl)amino)pyridin-3-yl)methyl)piperazin-1-yl)propanoyl)-2-azaspiro[4.4]nonan-7-yl)amino)-N-(6-(dimethylamino)pyridazin-3-yl)-6-(isopropylamino)nicotinamide]: in the experiment on Calu-1 cells, the half-maximal inhibitory concentration (IC50) was ≤ 10 nM. Further, the IC50 in the experiment on MCF7 cells was < 50 nM. Also, on CDK4 [2], the activity at 0.01 µM was > 85% and the activity at 0.1 µM is > 85%.

Regarding `CC(=O)c1c(C)c2cnc(Nc3ccc(N4CCN(C5CCN(C(=O)C67CC(Nc8nc(NC(C)C)ccc8C(=O)Nc8cc9n(n8)CCC9)(C6)C7)C5)CC4)cn3)nc2n(C2CCCC2)c1=O` (centres unmarked) [CPD-592, 2-((3-(3-(4-(6-((6-acetyl-8-cyclopentyl-5-methyl-7-oxo-7,8-dihydropyrido[2,3-d]pyrimidin-2-yl)amino)pyridin-3-yl)piperazin-1-yl)pyrrolidine-1-carbonyl)bicyclo[1.1.1]pentan-1-yl)amino)-N-(5,6-dihydro-4H-pyrrolo[1,2-b]pyrazol-2-yl)-6-(isopropylamino)nicotinamide], in the experiment with Calu-1 cells, the IC50 was ≤ 10 nM. The IC50 with MCF7 cells was < 50 nM. On CDK4 [2], the activity at 0.01 µM was in the range of 55 to 85% and the activity at 0.1 µM lay within 55 to 85%.

Regarding `CC(=O)c1c(C)c2cnc(Nc3ccc(CN4CCN(CC(=O)NC5CCC(Nc6nc(NC(C)C)ccc6C(=O)Nc6ccc(N(C)C)nn6)CC5)CC4)cn3)nc2n(C2CCCC2)c1=O` (centres unmarked) [CPD-473, 2-((4-(2-(4-((6-((6-acetyl-8-cyclopentyl-5-methyl-7-oxo-7,8-dihydropyrido[2,3-d]pyrimidin-2-yl)amino)pyridin-3-yl)methyl)piperazin-1-yl)acetamido)cyclohexyl)amino)-N-(6-(dimethylamino)pyridazin-3-yl)-6-(isopropylamino)nicotinamide], the IC50 with Calu-1 cells was ≤ 10 nM; in the experiment on MCF7 cells, < 50 nM. Moreover, the activity at 0.01 µM at CDK4 [2] was > 85%. Further, at CDK4 [2], the activity at 0.1 µM was > 85%.

Take `COC1(C(=O)N2CCC(N3CCN(c4ccc(Nc5ncc6c(C)c(C(C)=O)c(=O)n(C7CCCC7)c6n5)nc4)CC3)C2)CCC(Nc2nc(NC(C)C)ccc2C(=O)Nc2ccc(N(C)C)nn2)CC1` (centres unmarked) [CPD-536, 2-((4-(3-(4-(6-((6-acetyl-8-cyclopentyl-5-methyl-7-oxo-7,8-dihydropyrido[2,3-d]pyrimidin-2-yl)amino)pyridin-3-yl)piperazin-1-yl)pyrrolidine-1-carbonyl)-4-methoxycyclohexyl)amino)-N-(6-(dimethylamino)pyridazin-3-yl)-6-(isopropylamino)nicotinamide]: the IC50 is ≤ 10 nM with Calu-1 cells and < 50 nM with MCF7 cells. For the same molecule, on CDK4 [2], the activity at 0.01 µM was > 85%. Besides, the activity at 0.1 µM at CDK4 [2] was 55 to 85%.

These data come from patent US20260297081A1, “COMPOUNDS AND METHODS OF TREATING CANCERS” (Cullgen Inc., priority 2023, published 2026).
